Source: patent publication US20070004634A1 (Novo Nordisk A/S, priority 1998, published 2007)
Residues, ends and D or L forms follow the SMILES beside them. No end group written: not given here.

Legend:
IR [1] = assay: IR activity (agonist/antagonist) of MBP-peptide fusions, Table 10; test not named; conditions: MBP-peptide fusion proteins; one symbol per monomer unit
[2] = tested on: FDC-P2 cells expressing the IL-3 and human IGF-1R receptors; assay: IGF-1 proliferation assay in FDC-P2 cells, agonist format; conditions: FDC-P2 cells
IGF-1R [3] = biological target: T1, IGF-1R (Homo sapiens, UniProt P08069); assay: TR-FRET dissociation of biotinylated-20E2 from rhIGF-1R; type: binding; conditions: peptides 100 μM, IGF-1 30 μM
Method: Best fit non-linear regression analysis of the data, was used to determine dissociation rate constants. Each data point represents a single observation. […] Reactions were allowed to reach equilibrium for 6 h at RT.

[4] = tested on: FDC-P2 cells expressing the IL-3 and human IGF-1R receptors; assay: IGF-1 proliferation assay in FDC-P2 cells, antagonist format
MiaPaCa cells [5] = assay: MiaPaCa cell proliferation assay, IGF-1R agonist format; type: cell-based, human; conditions: MiaPaCa cell proliferation, agonist effect
MiaPaCa cells [6] = tested on: MiaPaCa cells
[7] = biological target: His-tagged soluble recombinant human IGF-IR (srhIGF-1R-his) (Homo sapiens, UniProt P08069); assay: ALPHAScreen competition, b-hIGF-1 binding to srhIGF-1R-his; conditions: read-out: Affin.; AlphaScreen assay versus IGF-1
IR [8] = biological target: IR (Homo sapiens, UniProt P06213); assay: IR-Kd; design: replacing the transmembrane domain and the intracellular domain of IR with constant domains from immunoglobulin Fc or λ subunits; made in house; host or cells: human embryonic kidney 293 cells (Bass et al.)
Text: Table printed on a drawing sheet, FIG. 5B
The patent's description of the figure: FIG. 5A: Summary of specific representative amino acid sequences from Formulas 1, 4, 6, and 10 (SEQ ID NOS:1155-1180).
FIG. 5B: Summary of specific representative amino acid sequences from Formulas 1, 4, 6, and 10 (SEQ ID NOS:1181-1220).
First copying reader's note: The scan is skewed, so values in the right-hand columns sit slightly higher than their clone names, and their rows were assigned by following the ruled lines.
Where the first naming reader finds the target: head: IR-Kd

[9] = biological target: T2, soluble human insulin receptor-immunoglobulin heavy chain chimera (sIR-Fc) (Homo sapiens, UniProt P06213); assay: TR-FRET competition with biotinylated RP9 (b-RP9) for sIR-Fc; type: binding; conditions: Hill slope; target sIR-Fc; label b-RP9; TR-FRET
T2 construct: replacing the transmembrane domain and the intracellular domain of IR with constant domains from immunoglobulin Fc or λ subunits; made in house; host or cells: human embryonic kidney 293 cells (Bass et al.)

[10] = biological target: T2, soluble human insulin receptor-immunoglobulin heavy chain chimera (sIR-Fc); assay: Fluorescence polarization, competition with FITC-RP9 for sIR-Fc; type: binding
[11] = biological target: T3, soluble HIR ectodomain (sIR) (Homo sapiens, UniProt P06213); assay: Fluorescence polarization, competition with FITC-RP9 for sIR; type: binding; conditions: Hill slope, target sIR, label FITC-RP9
T3 construct: soluble HIR ectodomain (sIR); Kristensen et al., 1998

IGF-1R [12] = biological target: T1, IGF-1R; assay: TR-FRET competition with biotinylated-20E2 for rhIGF-1R; conditions: TR-FRET (rhIGF-1R, b-20E2) versus FP (sIR-Fc), summary of Table 22
[13] = tested on: free fat cells (adipocytes); assay: Adipocyte / free fat cell (FFC) assay, 3H glucose incorporation into lipid; conditions: free fat cell assay class, Table 9
[14] = biological target: T4, insulin receptor construct transfected into 32D cells (Homo sapiens, UniProt P06213); assay: IR autophosphorylation assay in IR transfected 32D cells (ELISA); type: cell-based; conditions: tested as MBP fusion peptides
T4 construct: expressed in transfected cells; host or cells: 32D cells (clone 969)
Method: The IR transfected 32D cells were seeded at […] in 96-well tissue culture plates and incubated overnight at 37° C. […] The culture media was decanted from the cell culture plates, and the diluted samples were added to the cells. The plates were incubated at 37° C. for 30 min. The stimulation medium was decanted from the plates, and cell lysis buffer (50 mM HEPES pH 7.2, 150 mM NaCl, 0.5% Triton X-100, 1 mM AEBSF, 10 KIU/ml aprotinin, 50 μM leupeptin, and 2 mM sodium orthovanadate) was added. The cells were lysed for 30 min.
In the ELISA portion of the assay, the cell lysates were added to the BSA-blocked anti-IR unit mAb (Upstate Biotechnology, Lake Placid, N.Y.) coated ELISA plates. After a 2 h incubation, the plates were washed 6 times with PBST and biotinylated anti-phosphotyrosine antibody (Upstate Biotechnology) is added. After another 2 h incubation, the plates were again washed 6 times. Streptavidin-Eu was then added, and the plates were incubated for 1 h. After washing the plates again, EG&G Wallac enhancement solution (100 mM acetone-potassium hydrogen pthalate, pH 3.2; 15 mM 2-naphtyltrifluoroacetate; 50 mM tri(n-octyl)-phosphine oxide; 0.1% Triton X-100) was added into each well, and the plates were placed onto a shaker for 20 min at RT.

[15] = biological target: T2, soluble human insulin receptor-immunoglobulin heavy chain chimera (sIR-Fc); assay: TR-FRET competition with biotinylated S175 (b-S175) for sIR-Fc; type: binding; conditions: Hill slope, target sIR-Fc, label b-S175
Insulin receptor = biological target: T5, Insulin receptor (Homo sapiens, UniProt P06213); assay: BIAcore competition, IR binding to immobilized insulin
T5 construct: replacing the transmembrane domain and the intracellular domain of IR with constant domains from immunoglobulin Fc or λ subunits; made in house; host or cells: human embryonic kidney 293 cells (Bass et al.)
Method: Flowcell-1 was used for background binding to correct for any non-specific binding. […] The surface was regenerated with 25 mM NaOH.

T2 sequence (P06213 28-758 limits assumed, stated change not applied): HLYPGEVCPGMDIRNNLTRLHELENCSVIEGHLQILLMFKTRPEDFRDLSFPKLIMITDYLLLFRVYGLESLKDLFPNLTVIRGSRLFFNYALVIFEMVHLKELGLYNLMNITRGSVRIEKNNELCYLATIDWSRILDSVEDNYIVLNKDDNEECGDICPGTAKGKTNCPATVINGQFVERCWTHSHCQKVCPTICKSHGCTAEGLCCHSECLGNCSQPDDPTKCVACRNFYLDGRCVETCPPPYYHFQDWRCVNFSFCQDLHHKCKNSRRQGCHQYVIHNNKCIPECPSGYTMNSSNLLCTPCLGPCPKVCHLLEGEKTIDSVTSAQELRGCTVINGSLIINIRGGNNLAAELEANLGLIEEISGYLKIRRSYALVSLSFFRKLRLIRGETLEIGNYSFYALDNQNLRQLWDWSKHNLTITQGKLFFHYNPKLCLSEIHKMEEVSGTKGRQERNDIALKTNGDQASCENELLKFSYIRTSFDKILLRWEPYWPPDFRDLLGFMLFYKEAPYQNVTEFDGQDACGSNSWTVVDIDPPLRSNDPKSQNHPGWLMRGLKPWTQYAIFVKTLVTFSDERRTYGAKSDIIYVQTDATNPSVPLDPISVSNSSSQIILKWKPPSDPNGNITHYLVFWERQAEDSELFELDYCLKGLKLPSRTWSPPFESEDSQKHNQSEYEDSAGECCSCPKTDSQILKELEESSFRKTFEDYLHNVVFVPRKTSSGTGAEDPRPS
T2 sequence (P06213 763-956 limits assumed, stated change not applied): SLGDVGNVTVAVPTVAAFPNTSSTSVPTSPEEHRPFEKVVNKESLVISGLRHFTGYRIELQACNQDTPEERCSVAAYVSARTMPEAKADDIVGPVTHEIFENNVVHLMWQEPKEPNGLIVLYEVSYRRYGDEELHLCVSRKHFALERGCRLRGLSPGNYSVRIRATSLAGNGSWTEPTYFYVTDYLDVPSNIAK
T1 sequence (P08069 31-736 limits assumed): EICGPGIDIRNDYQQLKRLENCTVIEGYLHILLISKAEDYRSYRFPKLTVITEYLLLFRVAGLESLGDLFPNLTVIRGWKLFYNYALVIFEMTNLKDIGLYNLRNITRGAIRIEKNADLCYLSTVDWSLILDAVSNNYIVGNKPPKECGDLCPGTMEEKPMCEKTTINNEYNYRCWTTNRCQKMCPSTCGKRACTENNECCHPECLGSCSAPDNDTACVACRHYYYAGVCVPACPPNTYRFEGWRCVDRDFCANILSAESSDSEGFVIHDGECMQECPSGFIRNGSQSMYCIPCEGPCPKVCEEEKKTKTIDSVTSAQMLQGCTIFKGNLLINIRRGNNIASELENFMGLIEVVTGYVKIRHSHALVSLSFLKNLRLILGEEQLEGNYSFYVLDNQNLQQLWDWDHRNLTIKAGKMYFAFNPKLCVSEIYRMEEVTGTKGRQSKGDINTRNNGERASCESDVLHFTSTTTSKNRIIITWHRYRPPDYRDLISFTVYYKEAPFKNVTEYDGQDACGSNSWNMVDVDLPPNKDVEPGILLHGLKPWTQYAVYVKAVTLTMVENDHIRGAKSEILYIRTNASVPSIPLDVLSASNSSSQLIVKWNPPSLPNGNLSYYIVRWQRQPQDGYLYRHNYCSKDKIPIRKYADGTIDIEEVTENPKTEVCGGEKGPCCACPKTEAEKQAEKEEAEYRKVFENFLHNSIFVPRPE
T1 sequence (P08069 741-935 limits assumed): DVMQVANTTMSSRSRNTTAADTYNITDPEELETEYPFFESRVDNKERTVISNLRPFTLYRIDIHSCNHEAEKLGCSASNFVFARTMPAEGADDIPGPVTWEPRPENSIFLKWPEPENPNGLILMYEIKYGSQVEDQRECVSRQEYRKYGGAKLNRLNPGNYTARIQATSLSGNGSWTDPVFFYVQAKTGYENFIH
T5 sequence (P06213 28-758 limits assumed): as the sequence (P06213 28-758 limits assumed, stated change not applied) above
T5 sequence (P06213 763-956 limits assumed): as the sequence (P06213 763-956 limits assumed, stated change not applied) above
T4 sequence (P06213 28-758 limits assumed): as the sequence (P06213 28-758 limits assumed, stated change not applied) above
T4 sequence (P06213 763-1382 limits assumed): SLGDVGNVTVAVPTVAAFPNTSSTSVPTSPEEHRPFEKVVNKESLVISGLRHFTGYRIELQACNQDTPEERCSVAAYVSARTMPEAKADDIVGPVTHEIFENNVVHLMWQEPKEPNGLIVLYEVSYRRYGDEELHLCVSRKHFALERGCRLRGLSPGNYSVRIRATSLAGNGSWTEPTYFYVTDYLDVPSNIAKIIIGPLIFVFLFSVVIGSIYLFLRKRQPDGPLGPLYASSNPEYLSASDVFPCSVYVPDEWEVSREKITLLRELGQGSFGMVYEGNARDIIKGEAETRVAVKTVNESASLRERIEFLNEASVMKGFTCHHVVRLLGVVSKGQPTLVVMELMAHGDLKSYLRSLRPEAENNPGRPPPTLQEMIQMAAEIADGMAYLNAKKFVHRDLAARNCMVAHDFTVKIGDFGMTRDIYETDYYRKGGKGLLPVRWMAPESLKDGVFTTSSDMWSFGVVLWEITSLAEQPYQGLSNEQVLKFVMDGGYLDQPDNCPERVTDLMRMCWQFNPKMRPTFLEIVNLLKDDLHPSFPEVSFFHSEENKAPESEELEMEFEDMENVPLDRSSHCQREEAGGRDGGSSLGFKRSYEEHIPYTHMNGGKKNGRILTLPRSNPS
Chain of IR (Homo sapiens, UniProt P06213) (P06213 28-758 limits assumed): as the sequence (P06213 28-758 limits assumed, stated change not applied) above
Chain of IR (Homo sapiens, UniProt P06213) (P06213 763-1382 limits assumed): as the sequence (P06213 763-1382 limits assumed) above
T3 sequence (P06213 28-758 limits assumed): as the sequence (P06213 28-758 limits assumed, stated change not applied) above
T3 sequence (P06213 763-956 limits assumed): as the sequence (P06213 763-956 limits assumed, stated change not applied) above
Chain of His-tagged soluble recombinant human IGF-IR (srhIGF-1R-his) (P08069 31-736 limits assumed): as the sequence (P08069 31-736 limits assumed) above
Chain of His-tagged soluble recombinant human IGF-IR (srhIGF-1R-his) (P08069 741-935 limits assumed): as the sequence (P08069 741-935 limits assumed) above

Question: “437 (NNNNLGIEGRISEFIEGRAQPAMAFHENFYDWFVRQVSAAAGAPVPYPDPLEPRAA; also: MBP fusion, junction not given here) [Peptide 437]” was tested. Which “Act. (activity)” value (IR [1]) did it give?
Answer: Its value is “N—N”.

Question: For CC(C)C[C@H](NC(=O)[C@H](CS)NC(=O)[C@H](CO)NC(=O)[C@H](Cc1ccc(O)cc1)NC(=O)[C@H](Cc1ccccc1)NC(=O)[C@@H](N)[C@@H](C)O)C(=O)N[C@@H](C)C(=O)N[C@@H](CO)C(=O)N[C@@H](CC(C)C)C(=O)N[C@@H](CC(C)C)C(=O)N[C@H](C(=O)NCC(=O)N[C@H](C(=O)N1CCC[C@H]1C(=O)N[C@@H](CCC(N)=O)C(=O)N1CCC[C@H]1C(=O)N[C@@H](CC(N)=O)C(=O)N[C@@H](CCCNC(=N)N)C(=O)NCC(=O)N1CCC[C@H]1C(=O)N[C@@H](Cc1c[nH]c2ccccc12)C(=O)N[C@@H](CCC(=O)O)C(=O)N[C@@H](CCCNC(=N)N)C(=O)N[C@@H](CS)C(=O)N[C@@H](CCCNC(=N)N)C(=O)O)[C@@H](C)O)[C@@H](C)O [RP6] (H-TFYSCLASLLTGTPQPNRGPWERCR-OH; N-terminus and C-terminus assumed), which “agonist activity at IGF-1R, in words” value [2] is on record?
Answer: The value was “no agonist activity”.

Question: And the “effect on the rate of dissociation of b-20E2 from IGF-1R” value (IGF-1R [3])?
Answer: Its value is “dissociation rates of b-20E2 were similar”.

Question: What about the “FDC-P2 Antagonist” value ([4]; FDC-P2 cell proliferation, antagonist effect) of the same compound?
Answer: Its value is “+”.

Question: And the “antagonist activity at IGF-1R, in words” value ([4]; FDC-P2 cells)?
Answer: Its value is “acted as an antagonist”.

Question: What about the EC50 ([4]; read-out: ED50, antagonist activity at IGF-1R, FDC-P2 cells, 10 ng/ml IGF-1 test medium) of the same compound?
Answer: The EC50 was roughly 1000 nM.

Question: And the “MiaPaCa Agonist” value (MiaPaCa cells [5])?
Answer: The value was “No”.

Question: What about the “MCF-7 Antagonist” value (MCF-7 cells; MCF-7 cell proliferation, antagonist effect) of the same compound?
Answer: Its value is “+”.

Question: And the “MiaPaCa Antagonist” value (MiaPaCa cells [6]; MiaPaCa cell proliferation, antagonist effect)?
Answer: The value was “No”.

Question: CC(C)C[C@@H]1NC(=O)[C@@H](NC(=O)[C@H](CO)NC(=O)[C@H](Cc2ccc(O)cc2)NC(=O)[C@H](Cc2ccccc2)NC(=O)[C@@H](N)CO)CSSC[C@@H](C(=O)N[C@@H](CCCNC(=N)N)C(=O)N[C@@H](CCCCN)C(=O)N[C@@H](CCCCN)C(=O)O)NC(=O)CNC(=O)[C@H](CC(=O)O)NC(=O)[C@H](Cc2c[nH]c3ccccc23)NC(=O)[C@H](CCC(N)=O)NC(=O)CNC(=O)[C@H](CCCNC(=N)N)NC(=O)[C@H](CO)NC(=O)[C@H](CCCCN)NC(=O)[C@H](CCC(=O)O)NC(=O)[C@H](C)NC(=O)[C@@H]2CCCN2C(=O)CNC(=O)[C@H](CC(N)=O)NC(=O)[C@H](C(C)C)NC(=O)[C@H](CC(C)C)NC(=O)[C@H](CO)NC(=O)[C@H](CCC(=O)O)NC1=O [RP33-IGF with KK] was tested. Which IC50 [7] did it give?
Answer: Its IC50 is 9 nM.

Question: And the IC50 (MCF-7 cells; MCF-7)?
Answer: The IC50 was 100 nM.

Question: And the Activ. (MCF-7 cells; proliferation assays in the presence of IGF-1 using MCF-7 and MiaPaCa cells)?
Answer: The Activ. was “Antag”.

Question: And the IC50 (MiaPaCa cells [6]; MiaPaCa)?
Answer: Its IC50 is 700 nM.

Question: AFYDWFAKK [Peptide S167] was tested. Which Kd (IR [8]) did it give?
Answer: Its Kd is greater than 20 µM.

Question: What does the source list for FHENFYDWFVRQVSKK [Peptide H2C]?
Answer: effect on the rate of dissociation of b-20E2 from IGF-1R (IGF-1R [3]): dissociation rates of b-20E2 were similar; Hill, sIR-Fc, b-RP9, FRET [9]: −1.03; potency / affinity at IR, in words ([10]; FP with FITC-RP9, summary of Table 22): slightly less potent; Hill, sIR-Fc, FITC-RP9, FP ([10]; Hill slope, target sIR-Fc, label FITC-RP9, fluorescence polarization): −0.27; Hill, sIR, FITC-RP9, FP [11]: −0.49; binding to IGF-1R compared with IR, in words (IGF-1R [12]): lower binding ratios for IGF-1R over IR; FFC [13]: +; stimulation of autophosphorylation of IR [14]: stimulate autophosphorylation; Hill, sIR-Fc, b-S175, FRET [15]: −0.82

Question: With KWLDQEWAWVQCEVYGRGCPSKK [Peptide D8] as the compound, how does the “% Binding” value (Insulin receptor; Table 13, peptide about 40 μM, IR 450 nM, IR alone 100) read?
Answer: Its value is 33%.

Question: Which “Result (RUs)” value (Insulin receptor; Table 12, IR 450 nM pre-incubated with insulin […], A7 (20A4)-MBP 4.1 μM, D8-MBP […], D10-MBP 3.4 μM, 447-MBP 11.5 μM or MBP 13 μM, IR alone 220 RU) does the source give for “maltose binding protein [MBP, reference compound]” here?
Answer: The value was 209 RUs.
